Experimental data: ChEMBL document CHEMBL1909046, “DrugMatrix in vitro pharmacology data”
pIC50, pKi: −log10 of the molar value.

What follows are compounds tested against Beta-2 adrenergic receptor (Homo sapiens, UniProt P07550) (assay: DRUGMATRIX: Adrenergic beta2 radioligand binding (ligand: [3H] CGP-12177)). Details: Not Active = under 50% inhibition at 10 µM; read-out: IC50.
Sequence of Beta-2 adrenergic receptor (P07550 whole entry): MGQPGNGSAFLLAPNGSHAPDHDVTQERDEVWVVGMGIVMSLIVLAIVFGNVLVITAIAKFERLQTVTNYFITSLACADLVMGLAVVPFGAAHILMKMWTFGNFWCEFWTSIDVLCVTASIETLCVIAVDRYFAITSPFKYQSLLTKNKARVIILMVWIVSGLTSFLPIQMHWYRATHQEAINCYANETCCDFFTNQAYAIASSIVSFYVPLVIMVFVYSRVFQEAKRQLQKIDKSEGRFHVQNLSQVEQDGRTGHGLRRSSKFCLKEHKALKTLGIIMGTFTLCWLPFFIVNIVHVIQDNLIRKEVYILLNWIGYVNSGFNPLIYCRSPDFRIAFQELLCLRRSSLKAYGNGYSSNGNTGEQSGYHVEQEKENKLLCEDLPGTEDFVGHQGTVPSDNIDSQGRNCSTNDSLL
Format: cell membranes, CHO, Membrane
For `CN(C)C(=O)C(CCN1CCC(O)(c2ccc(Cl)cc2)CC1)(c1ccccc1)c1ccccc1` [LOPERAMIDE], the pIC50 was 5.52.

Same assay, conditions: Not Active = under 50% inhibition at 10 µM; read-out: Ki
`CN(C)C(=O)C(CCN1CCC(O)(c2ccc(Cl)cc2)CC1)(c1ccccc1)c1ccccc1` [LOPERAMIDE] showed a pKi of 5.68.

Same assay, conditions: cho; Not Active = under 50% inhibition at 10 µM
In the case of `CCCCC(=O)N(Cc1ccc(-c2ccccc2-c2nnn[nH]2)cc1)[C@H](C(=O)O)C(C)C`, the IC50 was “Not Active”.
`O=C(O)COc1ccc(C(=O)c2cccs2)c(Cl)c1Cl` was tested, and the IC50 was “Not Active”.
In the case of `CN1[C@@H]2CC[C@H]1C[C@@H](OC(c1ccccc1)c1ccccc1)C2` [BENZTROPINE], the IC50 was “Not Active”.
In the case of `C[C@@](Cc1ccc(O)c(O)c1)(NN)C(=O)O.O` [CARBIDOPA], the IC50 was “Not Active”.
`CN1CCN(C2=Nc3cc(Cl)ccc3Nc3ccccc32)CC1` [CLOZAPINE] was tested, and the IC50 was “Not Active”.
For `O=C(O)CCCCC1CCSS1` (stereo not drawn) [LIPOIC ACID, ALPHA], the IC50 was “Not Active”.

Each compound was assayed against T1, B2 bradykinin receptor (Homo sapiens, UniProt P30411). Details: chem-1.
T1 sequence (P30411 whole entry): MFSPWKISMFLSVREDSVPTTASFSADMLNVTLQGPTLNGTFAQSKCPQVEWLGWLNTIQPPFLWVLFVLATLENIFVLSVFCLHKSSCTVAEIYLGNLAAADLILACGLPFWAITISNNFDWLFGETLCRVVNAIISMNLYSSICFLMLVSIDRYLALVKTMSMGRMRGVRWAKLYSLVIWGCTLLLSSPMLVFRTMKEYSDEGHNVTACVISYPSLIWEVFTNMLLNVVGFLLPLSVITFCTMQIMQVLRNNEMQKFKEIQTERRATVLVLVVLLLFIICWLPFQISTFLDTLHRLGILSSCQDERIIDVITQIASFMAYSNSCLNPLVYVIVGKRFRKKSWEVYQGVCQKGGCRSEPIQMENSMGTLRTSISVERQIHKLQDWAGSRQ
Format: cell membranes, Membrane
With `CCCCC(=O)N(Cc1ccc(-c2ccccc2-c2nnn[nH]2)cc1)[C@H](C(=O)O)C(C)C` the IC50 was “Not Active”.
With `O=C(O)COc1ccc(C(=O)c2cccs2)c(Cl)c1Cl` the IC50 was “Not Active”.
In the case of `CN1[C@@H]2CC[C@H]1C[C@@H](OC(c1ccccc1)c1ccccc1)C2` [BENZTROPINE], the IC50 was “Not Active”.
For `C[C@@](Cc1ccc(O)c(O)c1)(NN)C(=O)O.O` [CARBIDOPA], the IC50 was “Not Active”.
`CN1CCN(C2=Nc3cc(Cl)ccc3Nc3ccccc32)CC1` [CLOZAPINE] was tested, and the IC50 was “Not Active”.
In the case of `O=C(O)CCCCC1CCSS1` (stereo not drawn) [LIPOIC ACID, ALPHA], the IC50 was “Not Active”.
`CN(C)C(=O)C(CCN1CCC(O)(c2ccc(Cl)cc2)CC1)(c1ccccc1)c1ccccc1` [LOPERAMIDE] was tested, and the IC50 was “Not Active”.

Each compound was assayed against T2, Progesterone receptor (Bos taurus, UniProt Q690N0) (assay: DRUGMATRIX: Progesterone radioligand binding (ligand: [3H] R-5020)). Details: Not Active = under 50% inhibition at 10 µM.
T2 sequence (Q690N0 whole entry): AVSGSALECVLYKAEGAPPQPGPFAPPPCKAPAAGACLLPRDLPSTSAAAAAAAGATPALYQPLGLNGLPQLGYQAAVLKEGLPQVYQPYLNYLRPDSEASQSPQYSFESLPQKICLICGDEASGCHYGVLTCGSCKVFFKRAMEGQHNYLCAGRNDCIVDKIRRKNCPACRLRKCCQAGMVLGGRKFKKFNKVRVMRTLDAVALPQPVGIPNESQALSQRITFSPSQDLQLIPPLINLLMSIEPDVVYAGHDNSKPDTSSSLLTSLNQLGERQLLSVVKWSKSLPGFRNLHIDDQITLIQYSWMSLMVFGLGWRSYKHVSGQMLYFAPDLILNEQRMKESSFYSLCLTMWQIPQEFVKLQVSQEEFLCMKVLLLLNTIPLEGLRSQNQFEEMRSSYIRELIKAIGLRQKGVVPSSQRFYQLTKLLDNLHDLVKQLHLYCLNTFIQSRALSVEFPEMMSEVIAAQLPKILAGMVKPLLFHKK
Format: tissue-based, Uterus
`CCCCC(=O)N(Cc1ccc(-c2ccccc2-c2nnn[nH]2)cc1)[C@H](C(=O)O)C(C)C` was tested, and the IC50 was “Not Active”.
For `O=C(O)COc1ccc(C(=O)c2cccs2)c(Cl)c1Cl`, the IC50 was “Not Active”.
For `CN1[C@@H]2CC[C@H]1C[C@@H](OC(c1ccccc1)c1ccccc1)C2` [BENZTROPINE], the IC50 was “Not Active”.
For `C[C@@](Cc1ccc(O)c(O)c1)(NN)C(=O)O.O` [CARBIDOPA], the IC50 was “Not Active”.
For `CN1CCN(C2=Nc3cc(Cl)ccc3Nc3ccccc32)CC1` [CLOZAPINE], the IC50 was “Not Active”.
With `O=C(O)CCCCC1CCSS1` (stereo not drawn) [LIPOIC ACID, ALPHA] the IC50 was “Not Active”.
`CN(C)C(=O)C(CCN1CCC(O)(c2ccc(Cl)cc2)CC1)(c1ccccc1)c1ccccc1` [LOPERAMIDE] was tested, and the IC50 was “Not Active”.

What follows are compounds tested against Protein kinase C alpha type (Homo sapiens, UniProt P17252). Details: sf9.
Format: cell-based
With `CCCCC(=O)N(Cc1ccc(-c2ccccc2-c2nnn[nH]2)cc1)[C@H](C(=O)O)C(C)C` the IC50 was “Not Active”.
In the case of `O=C(O)COc1ccc(C(=O)c2cccs2)c(Cl)c1Cl`, the IC50 was “Not Active”.
In the case of `CN1[C@@H]2CC[C@H]1C[C@@H](OC(c1ccccc1)c1ccccc1)C2` [BENZTROPINE], the IC50 was “Not Active”.
With `C[C@@](Cc1ccc(O)c(O)c1)(NN)C(=O)O.O` [CARBIDOPA] the IC50 was “Not Active”.
`CN1CCN(C2=Nc3cc(Cl)ccc3Nc3ccccc32)CC1` [CLOZAPINE] was tested, and the IC50 was “Not Active”.
`O=C(O)CCCCC1CCSS1` (stereo not drawn) [LIPOIC ACID, ALPHA] was tested, and the IC50 was “Not Active”.
With `CN(C)C(=O)C(CCN1CCC(O)(c2ccc(Cl)cc2)CC1)(c1ccccc1)c1ccccc1` [LOPERAMIDE] the IC50 was “Not Active”.

Each compound was assayed against Adenosine receptor A2a (Homo sapiens, UniProt P29274) (assay: DRUGMATRIX: Adenosine A2A radioligand binding (ligand: […])). Details: hek293; Not Active = under 50% inhibition at 10 µM.
Sequence of Adenosine receptor A2a (P29274 whole entry): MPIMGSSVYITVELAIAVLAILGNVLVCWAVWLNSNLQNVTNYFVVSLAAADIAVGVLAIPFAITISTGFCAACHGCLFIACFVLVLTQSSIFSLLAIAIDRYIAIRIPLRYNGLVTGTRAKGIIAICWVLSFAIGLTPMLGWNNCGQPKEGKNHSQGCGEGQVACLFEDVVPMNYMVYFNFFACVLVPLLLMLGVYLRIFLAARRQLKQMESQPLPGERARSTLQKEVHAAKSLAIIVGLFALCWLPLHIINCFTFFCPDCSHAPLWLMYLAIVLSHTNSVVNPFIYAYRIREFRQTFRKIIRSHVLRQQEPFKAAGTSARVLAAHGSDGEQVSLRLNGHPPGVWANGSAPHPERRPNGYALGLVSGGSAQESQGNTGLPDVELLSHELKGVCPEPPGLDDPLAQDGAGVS
Format: cell membranes, HEK293, Membrane
`CCCCC(=O)N(Cc1ccc(-c2ccccc2-c2nnn[nH]2)cc1)[C@H](C(=O)O)C(C)C` was tested, and the IC50 was “Not Active”.
`O=C(O)COc1ccc(C(=O)c2cccs2)c(Cl)c1Cl` was tested, and the IC50 was “Not Active”.
For `CN1[C@@H]2CC[C@H]1C[C@@H](OC(c1ccccc1)c1ccccc1)C2` [BENZTROPINE], the IC50 was “Not Active”.
`C[C@@](Cc1ccc(O)c(O)c1)(NN)C(=O)O.O` [CARBIDOPA] was tested, and the IC50 was “Not Active”.
`CN1CCN(C2=Nc3cc(Cl)ccc3Nc3ccccc32)CC1` [CLOZAPINE] was tested, and the IC50 was “Not Active”.
`O=C(O)CCCCC1CCSS1` (stereo not drawn) [LIPOIC ACID, ALPHA] was tested, and the IC50 was “Not Active”.
`CN(C)C(=O)C(CCN1CCC(O)(c2ccc(Cl)cc2)CC1)(c1ccccc1)c1ccccc1` [LOPERAMIDE] was tested, and the IC50 was “Not Active”.

What follows are compounds tested against T3, Cytochrome P450 1A2 (Homo sapiens, UniProt P05177). Details: bti-tn-5b1-4.
T3 sequence (P05177 whole entry): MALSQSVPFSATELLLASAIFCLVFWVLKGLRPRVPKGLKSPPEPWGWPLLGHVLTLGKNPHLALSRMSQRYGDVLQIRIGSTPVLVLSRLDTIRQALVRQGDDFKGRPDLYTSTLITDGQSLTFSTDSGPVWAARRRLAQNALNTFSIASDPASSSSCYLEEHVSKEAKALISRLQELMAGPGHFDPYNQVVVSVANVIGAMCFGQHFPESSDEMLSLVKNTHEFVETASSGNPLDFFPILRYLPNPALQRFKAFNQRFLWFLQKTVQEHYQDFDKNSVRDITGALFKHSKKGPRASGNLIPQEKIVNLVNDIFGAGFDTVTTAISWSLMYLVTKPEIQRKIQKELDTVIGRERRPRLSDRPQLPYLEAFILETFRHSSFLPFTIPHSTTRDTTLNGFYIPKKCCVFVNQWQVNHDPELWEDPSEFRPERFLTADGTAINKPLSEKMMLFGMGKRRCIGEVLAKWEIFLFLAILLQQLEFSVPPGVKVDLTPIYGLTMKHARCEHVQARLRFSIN
With `CCCCC(=O)N(Cc1ccc(-c2ccccc2-c2nnn[nH]2)cc1)[C@H](C(=O)O)C(C)C` the IC50 was “Not Active” and the Ki was “Not Active”.
For `O=C(O)COc1ccc(C(=O)c2cccs2)c(Cl)c1Cl`, the IC50 was “Not Active” and the Ki was “Not Active”.
`CN1[C@@H]2CC[C@H]1C[C@@H](OC(c1ccccc1)c1ccccc1)C2` [BENZTROPINE] was tested, and the IC50 was “Not Active” and the Ki was “Not Active”.
For `C[C@@](Cc1ccc(O)c(O)c1)(NN)C(=O)O.O` [CARBIDOPA], the IC50 was “Not Active” and the Ki was “Not Active”.
In the case of `CN1CCN(C2=Nc3cc(Cl)ccc3Nc3ccccc32)CC1` [CLOZAPINE], the IC50 was “Not Active” and the Ki was “Not Active”.
With `O=C(O)CCCCC1CCSS1` (stereo not drawn) [LIPOIC ACID, ALPHA] the IC50 was “Not Active” and the Ki was “Not Active”.
With `CN(C)C(=O)C(CCN1CCC(O)(c2ccc(Cl)cc2)CC1)(c1ccccc1)c1ccccc1` [LOPERAMIDE] the IC50 was “Not Active” and the Ki was “Not Active”.
